Format in all cases: cell-based
The target of one experiment is BaF3 (HER2-A775insYVMA) (Homo sapiens, UniProt P04626, DUP772-775, cells depend on it). In words: Test 9: BaF3 (HER2-A775insYVMA) cell proliferation test. As to conditions: 72 hours, Cell Titer-Glo, read-out: Test 9 - IC50. How it is done:
Test 9: BaF3 (HER2-A775insYVMA) Cell Proliferation Test
BaF3 (HER2-A775insYVMA) was cultured in RPMI1640 medium containing 10% fetal bovine serum and 2 mM glutamine. The cells were grown at 37° C. in a humidified incubator with 5% CO2.
(§1) The number of viable cells in the culture was measured according to the protocol described in Promega's Cell Titer-Glo Luminescent cell Viability Assay (Promega catalog number #G7570). 90 μl of cells (3,000 cells/well) were cultured in growth medium in a Corning black transparent bottom 96-well plate, and cultured in a 5% CO2 humidified incubator at 37° C. overnight. The compound serially diluted in 100% DMSO was added to the cells using a pipette, and the cells were incubated for another 72 hours. 100 μl of the mixed Cell Titer-Glo reagent was added to the cells in the 96-well culture plate to lyse the cells and mix gently. Subsequently, the […] was detected on the Envision microplate detector to obtain the data of each compound. Finally, the data was input into a suitable software package (such as Prism) for curve fitting analysis.

For a further experiment, the target named is BaF3 (EGFR-A763insFQEA) (Homo sapiens, UniProt P00533, INS763FQEA, cells depend on it). As to the kind of experiment: Test 3: BaF3 (EGFR-A763insFQEA) cell proliferation test. As to conditions: 72 hours, Cell Titer-Glo, read-out: Test 3 - IC50. As to the method: Test 3: BaF3 (EGFR-A763insFOEA) Cell Proliferation Test
BaF3 (EGFR-A763insFQEA) was cultured in RPMI1640 medium containing 10% fetal bovine serum and 2 mM glutamine. The cells were grown at 37° C. in a humidified incubator with 5% CO2.
as §1
Background: Cellular ATP, detected with luciferase, serves as a proxy for viable cell number.

A further experiment deals with BaF3 (EGFR-D770insSVD) (Homo sapiens, UniProt P00533, DUP768-770, cells depend on it). As to the kind of experiment: Test 2: BaF3 (EGFR-D770insSVD) cell proliferation test. Conditions: 72 hours, Cell Titer-Glo, read-out: Test 2 - IC50. How it is done: Test 2: BaF3 (EGFR-D770insSVD) Cell Proliferation Test
BaF3 (EGFR-D770insSVD) was cultured in RPMI1640 medium containing 10% fetal bovine serum and 2 mM glutamine. The cells were grown at 37° C. in a humidified incubator with 5% CO2.
as §1

Another experiment deals with BaF3 (HER2-P780insGSP) (Homo sapiens, UniProt P04626, DUP778-780, cells depend on it). In words: Test 10: BaF3 (HER2-P780insGSP) cell proliferation test. Conditions: 72 hours, Cell Titer-Glo, read-out: Test 10 - IC50. How it is done:
Test 10: BaF3 (HER2-P780insGSP) Cell Proliferation Test
BaF3 (HER2-P780insGSP) was cultured in RPMI1640 medium containing 10% fetal bovine serum and 2 mM glutamine. The cells were grown at 37° C. in a humidified incubator with 5% CO2.
as §1

Our source for the GI50 values is US12258344B2, “Azaaromatic amide derivatives for the treatment of cancer” (SHENZHEN FORWARD PHARMACEUTICALS CO., LTD., priority 2019, dated 2025).

Chain of BaF3 (HER2-A775insYVMA) (P04626 with tags, fused parts or gaps DUP772-775): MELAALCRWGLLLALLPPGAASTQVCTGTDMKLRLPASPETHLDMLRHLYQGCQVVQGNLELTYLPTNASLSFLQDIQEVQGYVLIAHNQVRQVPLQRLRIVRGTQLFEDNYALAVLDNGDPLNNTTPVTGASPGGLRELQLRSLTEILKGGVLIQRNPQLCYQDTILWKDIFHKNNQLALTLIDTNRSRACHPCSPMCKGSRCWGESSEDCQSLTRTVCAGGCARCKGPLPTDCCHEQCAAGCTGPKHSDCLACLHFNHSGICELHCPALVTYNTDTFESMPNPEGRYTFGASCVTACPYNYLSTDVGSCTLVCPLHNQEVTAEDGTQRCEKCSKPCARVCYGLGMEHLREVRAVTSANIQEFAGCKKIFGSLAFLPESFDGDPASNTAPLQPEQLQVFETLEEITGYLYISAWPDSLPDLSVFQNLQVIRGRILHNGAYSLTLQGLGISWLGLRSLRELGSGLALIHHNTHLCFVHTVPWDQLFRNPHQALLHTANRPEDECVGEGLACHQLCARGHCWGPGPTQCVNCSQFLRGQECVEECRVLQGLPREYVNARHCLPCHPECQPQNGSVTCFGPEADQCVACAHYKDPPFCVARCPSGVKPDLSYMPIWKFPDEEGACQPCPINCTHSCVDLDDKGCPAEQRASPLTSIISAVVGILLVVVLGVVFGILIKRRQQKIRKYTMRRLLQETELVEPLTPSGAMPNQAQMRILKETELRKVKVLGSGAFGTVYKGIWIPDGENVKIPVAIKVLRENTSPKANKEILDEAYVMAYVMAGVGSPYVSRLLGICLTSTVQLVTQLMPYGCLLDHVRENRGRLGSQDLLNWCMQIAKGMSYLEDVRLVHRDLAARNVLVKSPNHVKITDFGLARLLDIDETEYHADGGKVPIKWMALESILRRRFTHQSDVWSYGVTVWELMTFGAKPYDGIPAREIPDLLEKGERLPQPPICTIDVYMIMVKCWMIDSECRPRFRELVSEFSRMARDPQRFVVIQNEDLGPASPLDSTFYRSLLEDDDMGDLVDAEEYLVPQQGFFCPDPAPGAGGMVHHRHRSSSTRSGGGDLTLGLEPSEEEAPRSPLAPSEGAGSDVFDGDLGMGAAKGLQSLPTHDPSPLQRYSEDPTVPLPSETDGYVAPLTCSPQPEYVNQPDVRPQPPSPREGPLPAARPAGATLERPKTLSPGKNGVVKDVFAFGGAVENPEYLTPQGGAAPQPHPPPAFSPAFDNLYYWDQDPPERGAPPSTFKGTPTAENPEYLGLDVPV
Chain of BaF3 (HER2-P780insGSP) (P04626 with tags, fused parts or gaps DUP778-780): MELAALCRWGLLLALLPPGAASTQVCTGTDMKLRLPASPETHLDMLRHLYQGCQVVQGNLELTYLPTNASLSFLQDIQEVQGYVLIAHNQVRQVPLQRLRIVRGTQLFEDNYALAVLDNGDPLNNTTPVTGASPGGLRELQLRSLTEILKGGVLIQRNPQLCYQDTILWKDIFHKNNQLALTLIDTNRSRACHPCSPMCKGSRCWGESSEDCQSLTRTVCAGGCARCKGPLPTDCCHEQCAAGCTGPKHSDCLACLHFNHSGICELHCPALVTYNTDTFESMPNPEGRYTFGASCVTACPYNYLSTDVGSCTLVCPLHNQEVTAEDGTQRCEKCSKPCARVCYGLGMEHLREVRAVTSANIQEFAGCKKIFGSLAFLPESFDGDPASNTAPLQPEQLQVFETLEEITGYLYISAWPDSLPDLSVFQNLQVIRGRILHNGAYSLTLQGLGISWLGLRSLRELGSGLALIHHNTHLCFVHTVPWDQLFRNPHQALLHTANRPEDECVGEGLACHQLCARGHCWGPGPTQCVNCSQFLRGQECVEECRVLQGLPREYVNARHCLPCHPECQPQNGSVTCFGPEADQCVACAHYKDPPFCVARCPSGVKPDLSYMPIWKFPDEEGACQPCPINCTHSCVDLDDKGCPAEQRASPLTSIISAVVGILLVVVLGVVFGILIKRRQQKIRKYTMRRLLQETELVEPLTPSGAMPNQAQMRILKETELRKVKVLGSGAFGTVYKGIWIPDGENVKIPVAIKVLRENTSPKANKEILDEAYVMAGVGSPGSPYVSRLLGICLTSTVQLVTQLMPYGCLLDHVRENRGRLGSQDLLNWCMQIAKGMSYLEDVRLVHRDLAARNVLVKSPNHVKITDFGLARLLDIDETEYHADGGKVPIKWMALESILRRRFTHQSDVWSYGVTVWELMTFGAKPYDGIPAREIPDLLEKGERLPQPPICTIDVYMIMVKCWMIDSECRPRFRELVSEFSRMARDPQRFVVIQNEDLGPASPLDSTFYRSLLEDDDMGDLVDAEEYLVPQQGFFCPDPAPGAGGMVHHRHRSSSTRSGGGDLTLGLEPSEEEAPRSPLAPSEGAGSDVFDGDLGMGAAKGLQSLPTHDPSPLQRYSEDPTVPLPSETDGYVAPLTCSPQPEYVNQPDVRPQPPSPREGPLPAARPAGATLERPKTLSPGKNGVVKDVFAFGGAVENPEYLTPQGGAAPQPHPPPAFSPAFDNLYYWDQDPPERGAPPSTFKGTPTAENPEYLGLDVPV
Chain of BaF3 (EGFR-D770insSVD) (P00533 with tags, fused parts or gaps DUP768-770): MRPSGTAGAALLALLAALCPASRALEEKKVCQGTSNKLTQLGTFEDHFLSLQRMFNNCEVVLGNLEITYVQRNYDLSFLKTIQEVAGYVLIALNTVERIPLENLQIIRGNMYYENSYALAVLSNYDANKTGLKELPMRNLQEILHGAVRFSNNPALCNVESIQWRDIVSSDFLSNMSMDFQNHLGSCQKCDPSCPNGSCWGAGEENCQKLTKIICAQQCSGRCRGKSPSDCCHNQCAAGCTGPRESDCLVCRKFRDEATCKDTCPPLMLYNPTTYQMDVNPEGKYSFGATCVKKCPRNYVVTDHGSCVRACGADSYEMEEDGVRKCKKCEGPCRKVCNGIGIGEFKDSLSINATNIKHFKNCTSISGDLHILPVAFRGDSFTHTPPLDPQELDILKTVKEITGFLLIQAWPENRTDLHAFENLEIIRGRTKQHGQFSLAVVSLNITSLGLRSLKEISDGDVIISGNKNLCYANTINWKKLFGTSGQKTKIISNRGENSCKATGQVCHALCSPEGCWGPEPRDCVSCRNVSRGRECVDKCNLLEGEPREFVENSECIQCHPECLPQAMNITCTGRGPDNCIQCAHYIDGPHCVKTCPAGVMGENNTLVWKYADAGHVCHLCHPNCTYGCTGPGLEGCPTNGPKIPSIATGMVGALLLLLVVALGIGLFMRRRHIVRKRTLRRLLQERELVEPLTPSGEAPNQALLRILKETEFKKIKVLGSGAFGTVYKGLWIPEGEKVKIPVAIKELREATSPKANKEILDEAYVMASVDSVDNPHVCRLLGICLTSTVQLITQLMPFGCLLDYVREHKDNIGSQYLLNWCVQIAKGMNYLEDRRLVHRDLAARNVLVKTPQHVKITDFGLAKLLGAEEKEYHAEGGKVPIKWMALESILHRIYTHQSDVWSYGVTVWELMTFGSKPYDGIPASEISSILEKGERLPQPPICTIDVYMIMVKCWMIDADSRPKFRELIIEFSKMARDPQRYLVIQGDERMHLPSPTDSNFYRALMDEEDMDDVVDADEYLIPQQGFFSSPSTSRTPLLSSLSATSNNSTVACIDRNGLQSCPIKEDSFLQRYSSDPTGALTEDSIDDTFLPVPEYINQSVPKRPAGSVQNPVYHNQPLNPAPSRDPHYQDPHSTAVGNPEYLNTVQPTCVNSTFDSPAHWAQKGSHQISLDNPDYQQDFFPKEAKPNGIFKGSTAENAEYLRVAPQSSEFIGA
Chain of BaF3 (EGFR-A763insFQEA) (P00533 with tags, fused parts or gaps INS763FQEA): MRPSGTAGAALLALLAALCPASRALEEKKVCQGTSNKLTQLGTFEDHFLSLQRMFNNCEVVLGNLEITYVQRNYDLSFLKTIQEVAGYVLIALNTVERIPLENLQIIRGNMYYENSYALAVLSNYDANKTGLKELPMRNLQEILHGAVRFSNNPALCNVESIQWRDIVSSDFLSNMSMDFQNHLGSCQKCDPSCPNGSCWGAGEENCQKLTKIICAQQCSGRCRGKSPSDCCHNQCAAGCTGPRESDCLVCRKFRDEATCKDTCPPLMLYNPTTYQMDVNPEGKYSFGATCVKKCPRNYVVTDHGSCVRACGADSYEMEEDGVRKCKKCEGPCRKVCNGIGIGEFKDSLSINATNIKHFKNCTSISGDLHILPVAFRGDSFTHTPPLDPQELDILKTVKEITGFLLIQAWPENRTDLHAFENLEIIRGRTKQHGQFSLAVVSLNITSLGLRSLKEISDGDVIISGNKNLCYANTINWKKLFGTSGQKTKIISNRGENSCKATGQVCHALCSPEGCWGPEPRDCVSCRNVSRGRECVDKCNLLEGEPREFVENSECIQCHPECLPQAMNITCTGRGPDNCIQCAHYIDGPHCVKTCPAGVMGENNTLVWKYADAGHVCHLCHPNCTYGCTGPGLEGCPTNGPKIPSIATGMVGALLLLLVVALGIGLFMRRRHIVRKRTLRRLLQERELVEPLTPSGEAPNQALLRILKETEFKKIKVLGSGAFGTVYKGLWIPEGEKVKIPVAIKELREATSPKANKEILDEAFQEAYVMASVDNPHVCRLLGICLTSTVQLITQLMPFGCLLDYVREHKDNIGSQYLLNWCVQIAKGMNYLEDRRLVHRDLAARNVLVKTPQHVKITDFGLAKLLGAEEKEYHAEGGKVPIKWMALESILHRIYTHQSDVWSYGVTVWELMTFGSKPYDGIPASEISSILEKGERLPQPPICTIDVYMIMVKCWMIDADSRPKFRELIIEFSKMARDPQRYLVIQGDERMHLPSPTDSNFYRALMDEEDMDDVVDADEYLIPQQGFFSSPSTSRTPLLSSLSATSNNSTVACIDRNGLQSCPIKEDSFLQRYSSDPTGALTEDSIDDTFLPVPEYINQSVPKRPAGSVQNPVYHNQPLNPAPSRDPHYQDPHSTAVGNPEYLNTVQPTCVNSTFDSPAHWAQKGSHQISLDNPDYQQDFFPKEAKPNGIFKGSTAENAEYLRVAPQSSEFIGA

For the molecule `C=CC(=O)Nc1cc(Nc2ncnc(-c3cn(C)c4ccc(F)cc34)n2)c(OC)cc1N(C)CCN(C)C` [Example 11], the GI50 on BaF3 (HER2-A775insYVMA) is 14.2 nM; on BaF3 (EGFR-A763insFQEA), 9.45 nM; on BaF3 (EGFR-D770insSVD), 22.3 nM; at BaF3 (HER2-P780insGSP) it was 8.76 nM.

For the molecule `C=CC(=O)Nc1cc(Nc2ncnc(-c3cn(C)c4ccc(F)cc34)n2)c(OC(F)F)cc1N(C)CCN(C)C` [Example 14, N-(4-(difluoromethoxy)-2-((2-(dimethylamino)ethyl)(methyl)amino)-5-((4-(5-fluoro-1-methyl-1H-indol-3-yl)-1,3,5-triazin-2-yl)amino)phenyl)acrylamide], the GI50 at BaF3 (HER2-A775insYVMA) was 12.4 nM; at BaF3 (EGFR-A763insFQEA) it was 7.6 nM; on BaF3 (EGFR-D770insSVD) it was 16.4 nM; on BaF3 (HER2-P780insGSP), 6.92 nM.

Regarding `C=CC(=O)Nc1cc(Nc2ncnc(-c3cn(C)c4ccc(F)cc34)n2)c(OCC(F)(F)F)cc1N(C)CCN(C)C` [Example 15, N-(2-((2-(dimethylamino)ethyl)(methyl)amino)-5-((4-(5-fluoro-1-methyl-1H-indol-3-yl)-1,3,5-triazin-2-yl)amino)-4-(2,2,2-trifluoroethoxy)phenyl)acrylamide], the GI50 was 10.8 nM on BaF3 (HER2-A775insYVMA), 14 nM at BaF3 (EGFR-A763insFQEA), 24.4 nM on BaF3 (EGFR-D770insSVD) and 6.58 nM at BaF3 (HER2-P780insGSP).
